One compound from article PMC6498537, “Biomimetic synthesis of the natural product salviadione and its hybrids: discovery of tissue-specific anti-inflammatory agents for acute lung injury” (Chemical Science, 2019) can be followed below.

As a reminder, the IC50 is the concentration needed to halve the response being measured. For orientation: half-life means the time needed for the level to fall by half in the phase considered. Higher therefore signals slow loss.

Data set [1] has as its target T1, hERG potassium ion channel (Homo sapiens, UniProt Q12809).
T1 construct: expressed in transfected cells; host or cells: HEK293 (human embryonic kidney cells stably expressing hERG channels)
Briefly: hERG cardiotoxicity assay (manual patch clamp, HEK293). In kind it is cell-based. The settings on record: whole-cell patch clamp, read-out: hERG inhibition IC50. Background: hERG is a cardiac potassium channel; its block is linked to QT prolongation.
Procedure: hERG Cardiotoxicity Assay. The human embryonic kidney cells stably expressing hERG channels were used in the study.
vehicle control were delivered separately to the clamped cells by a 6-channel perfusion system. The hERG channel tail currents were recorded by clampex 10.3. The data were collected and analyzed by clampfit 10.3. The peak of the tail currents in the presence of positive control and test article were normalized with the currents recorded in the presence of corresponding vehicle control as 100 %, respectively. The IC50 value was calculated using GraphPad Prism 5.00.

A short description of data set [2]: Liver microsomal stability assay, human. It counts as in vitro ADME. The method, then:
(§1) Liver Microsomal Stability Assay. Microsomes in 0.1 M TRIS buffer pH 7.4 (final concentration 0.33 mg/mL), co-factor MgCl2 (final concentration 5 mM) and tested compound (final concentration 0.1 μM, co-solvent (0.01% DMSO) and 0.005% Bovin serum albumin) were incubated at 37°C for 10min. The reaction was started by the addition of NADPH (final concentration 1 mM). Aliquots were sampled at 0, 7, 17, 30 and 60 min, respectively, and methanol (cold in 4 °C) was added to terminate the […]
(§2) reaction. […]
For orientation: Liver microsomes are a subcellular fraction often used to study metabolism.

The nature of data set [3]: Liver microsomal stability assay, rat. In kind it is in vitro ADME. The settings on record: rat liver microsomes. As for the experimental part:
as §1, §2

Data set [4] concerns LPS-induced ALI in mice. Briefly: LPS-induced acute lung injury (ALI) in mice. In kind it is in vivo. As for the experimental part:
LPS-Induced Acute Lung Injury (ALI) in B6 Mice. Compound 15a was first
dissolved with macrogol 15 hydroxystearate (a nonionic solubilizer for injection from
BASF) with or without medium chain triglycerides (MCT, from BASF) in a water bath
at 37 °C. The concentration of compound was 2 mg/mL. The concentration of
solubilizer was 5−10%, and that for MCT was 0.5−2% in final solution. For the vehicle,
the mixture of solubilizer and MCT was prepared at 10% and 2%, respectively. Mice,
weighing 20−24 g, were randomized to the following three groups of seven animals
each: CON group, LPS group, 15a + LPS group. 15a + LPS group mice were pretreated
with compounds in a water solution (5 mg/kg) by i.v injection 15 min before 5 mg/kg
of LPS was administered by intratracheal instillation. The animals in CON group
received a similar volume of vehicle. After 6 hours, mice were euthanized to collect the
BALF, serum and lung tissue samples. […]
Determination Total Protein Concentration and Number of Neutrophils in BALF.
Bronchoalveolar lavage fluid (BALF) cells and supernatant were separated by
centrifugal separation at 4 °C and 3,000 rpm for 10 minutes. Total protein concentration
in supernatant of BALF was measured using a coomassie blue staining assay kit
according to the manufacturer's instructions. The cells of BALF were resuspended in
40 μL of physiological saline and used for neutrophil cell counts by Wright–Giemsa
Serum Analysis. Blood was collected from mice at sacrifice and was centrifuged at 4
°C and 12,000 rpm for 10 minutes. […]
Real-Time Quantitative PCR. Lung tissues were homogenized in TRIZOL kit
(Invitrogen, Carlsbad, CA) for extraction of RNA according to each manufacturer’s
protocol. Both reverse transcription and quantitative PCR were carried out using a two-
step M-MLV Platinum SYBR Green qPCR SuperMix-UDG kit (Invitrogen, Carlsbad,
CA). Eppendorf Mastercycler ep realplex detection system (Eppendorf, Hamburg,
Germany) was used for RT-qPCR analysis. The primers of genes including TNF-α,
IL-6, IL-1β, ICAM-1, and β-actin were synthesized by Invitrogen. The primer
sequences of mouse genes used are shown as follows:
TNF-α sense primer, 5′-[…]-3
TNF-α antisense primer, 5′-[…]-3′;
IL-6 sense primer, 5′-[…]-3′;
IL-6 antisense primer, 5′-[…]-3′;
IL-1β sense primer, 5′-[…]-3′;
IL-1β antisense primer, 5′-[…]-3′;
ICAM-1 sense primer, 5′-[…]-3′;
ICAM-1 antisense primer, 5′-[…]-3′;
β-actin sense primer, 5′-[…]-3′;
β-actin antisense primer, 5′-[…]-3′.
Statistical Analysis. The results are presented as the mean ±SD. The Student’s t test
was employed to analyze the differences between sets of data. Statistics were performed
using GraphPad Pro (GraphPad, San Diego, CA). P values less than 0.05 (p < 0.05)

Where [5] appears, read: pretreatment 5 mg kg^–1 i.v., LPS, 6 h.

T1 sequence (Q12809 whole entry): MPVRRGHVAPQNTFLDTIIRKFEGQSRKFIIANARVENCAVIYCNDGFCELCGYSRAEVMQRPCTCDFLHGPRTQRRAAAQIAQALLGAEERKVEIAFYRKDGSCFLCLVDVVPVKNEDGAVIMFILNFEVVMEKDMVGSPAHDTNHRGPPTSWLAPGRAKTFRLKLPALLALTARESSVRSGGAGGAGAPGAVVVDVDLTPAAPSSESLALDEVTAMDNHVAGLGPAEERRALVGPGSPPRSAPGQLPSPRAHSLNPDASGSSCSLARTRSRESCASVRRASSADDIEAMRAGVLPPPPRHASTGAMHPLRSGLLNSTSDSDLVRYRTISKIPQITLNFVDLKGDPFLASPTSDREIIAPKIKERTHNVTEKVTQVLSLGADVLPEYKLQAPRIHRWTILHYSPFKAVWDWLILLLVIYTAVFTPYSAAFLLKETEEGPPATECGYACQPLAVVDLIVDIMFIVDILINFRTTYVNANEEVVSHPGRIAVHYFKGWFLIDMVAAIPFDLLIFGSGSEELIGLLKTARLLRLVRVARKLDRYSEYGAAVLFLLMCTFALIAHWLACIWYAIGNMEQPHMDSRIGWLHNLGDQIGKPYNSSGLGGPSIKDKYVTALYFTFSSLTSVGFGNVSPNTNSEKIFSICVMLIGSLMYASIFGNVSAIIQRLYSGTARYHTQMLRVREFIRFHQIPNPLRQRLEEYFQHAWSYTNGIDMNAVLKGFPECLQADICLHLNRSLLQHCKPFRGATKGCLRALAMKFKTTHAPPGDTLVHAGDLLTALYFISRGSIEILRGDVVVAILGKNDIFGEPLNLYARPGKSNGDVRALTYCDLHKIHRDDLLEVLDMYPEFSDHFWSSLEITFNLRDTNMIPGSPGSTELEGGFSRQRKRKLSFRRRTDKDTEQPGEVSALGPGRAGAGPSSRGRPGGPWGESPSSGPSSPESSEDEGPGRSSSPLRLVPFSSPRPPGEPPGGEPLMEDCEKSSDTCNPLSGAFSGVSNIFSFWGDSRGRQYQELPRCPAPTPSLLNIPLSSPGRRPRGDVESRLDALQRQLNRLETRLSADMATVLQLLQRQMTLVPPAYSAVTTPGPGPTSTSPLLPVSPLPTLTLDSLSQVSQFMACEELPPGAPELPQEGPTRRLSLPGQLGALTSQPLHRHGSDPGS

With `Cc1coc2c1C(=O)c1c3c-2ccc2c3c(n1Cc1ccccc1)C(=O)CC2(C)C` [Compound 15a], the IC50 in data set [1] is > 40 µM. In data set [2] (human and rat microsomes), the “enhancement of metabolic stability compared to 2” value is recorded as 4- to 7 fold. Moreover, the Clint in vitro in data set [2] (human liver microsomes) is 61.62 mL min^–1 g^–1 protein. This compound registered a half-life at 0.1 μM in data set [2] (pH 7.4, human liver microsomes) of 34.1 min. Further, the half-life at 0.1 μM in data set [3] (pH 7.4) came to 23.5 min. Further, the Clint in vitro in data set [3] was found to be 89.44 mL min^–1 g^–1 protein. Moreover, the “mRNA expression of TNF-α, IL-6, IL-1β and ICAM-1 in lung tissue (RT-qPCR)” value in data set [4] (LPS-treated lung tissues, 5 mg/kg i.v.) is given as “markedly suppressed”. For the same compound, the “lung wet/dry weight ratio (lung edema)” value in data set [4] (pretreatment 5 mg kg^–1 i.v., 15 min before LPS 5 mg/kg intratracheal, 6 h) is reported as “effectively reduced”. Besides, in data set [4] (pretreatment 5 mg kg^–1 i.v., LPS), the “lung macrophage infiltration (CD68 immunostaining)” value is “significantly attenuated”. In data set [4] (setting [5]), the “histopathological features of lung (H&E)” value is given as “very little histopathological changes”, the “level of IL-6 in BALF” value is listed as “distinctly suppressed”, the “level of IL-6 in serum” value is reported as “no significant inhibition” and the “level of TNF-α in BALF” value is listed as “distinctly suppressed”. Also, in data set [4] (setting [5]), the “level of TNF-α in serum” value was “no significant inhibition”, the “number of neutrophils in BALF” value is “significantly decreased” and the “protein concentration in BALF” value is listed as “significantly inhibited”.
